Test results: paper PMC6272230, “Uses of 3-(2-Bromoacetyl)-2H-chromen-2-one in the Synthesis of Heterocyclic Compounds Incorporating Coumarin: Synthesis, Characterization and Cytotoxicity” (Molecules, 2015)
Where two headings read alike, the source gives them in different places.

Columns and labels:
[1] = tested on: human liver cancer (HEPG2); experiment: In vitro cytotoxicity against HEPG2 cells; format: cell-based
Protocol: (§1) The heterocyclic compounds, prepared in this study, were evaluated according to standard protocols for their in vitro cytotoxicity against six human cancer cell lines including cells derived from human gastric cancer (NUGC), human colon cancer (DLD1), human liver cancer (HA22T and HEPG2), nasopharyngeal carcinoma (HONE1), human breast cancer (MCF) and normal fibroblast cells (WI38). For comparison purposes, CHS 828, a pyridyl cyanoguanidine, was used as a standard antitumor drug (Figure 2). […] All the synthesized compounds were tested for their cytotoxicity against normal fibroblast cells.
(§2) Fetal bovine serum (FBS) and L-glutamine, were purchased from Gibco Invitrogen Co. (Scotland, UK). RPMI-1640 medium was purchased from Cambrex (East Rutherford, NJ, USA). Dimethyl sulfoxide (DMSO), CHS 828, penicillin, streptomycin and sulforhodamine B (SRB) were purchased from Sigma Chemical Co. (Saint Louis, MO, USA).
(§3) Cell cultures were obtained from the European Collection of Cell Cultures (ECACC, Salisbury, UK) and human gastric cancer (NUGC), human colon cancer (DLD1), human liver cancer (HA22T and HEPG2), human breast cancer (MCF), nasopharyngeal carcinoma (HONE1) and normal fibroblast cells (WI38) were kindly provided by the National Cancer Institute (NCI, Cairo, Egypt). They were grown as a monolayer and routinely maintained in RPMI-1640 medium supplemented with 5% heat inactivated FBS, 2 mM glutamine and antibiotics (penicillin 100 U/mL, streptomycin 100 µg/mL) at 37 °C in a humidified atmosphere containing 5% CO2. Exponentially growing cells were obtained by plating 1.5 × 10^5 cells/mL for the six human cancer cell lines followed by 24 h of incubation. The effect of the vehicle solvent (DMSO) on the growth of these cell lines was evaluated in all the experiments by exposing untreated control cells to the maximum concentration (0.5%) of DMSO used in each assay.

[2] = tested on: human gastric cancer (NUGC); experiment: In vitro cytotoxicity against NUGC cells; format: cell-based; settings: read-out: Cytotoxicity (IC50 in nM) NUGC
Protocol: as §1, §2, §3

[3] = tested on: nasopharyngeal carcinoma (HONE1); experiment: In vitro cytotoxicity against HONE1 cells; format: cell-based; settings: Homo sapiens
Protocol: as §1, §2, §3

[4] = tested on: human liver cancer (HA22T); experiment: In vitro cytotoxicity against HA22T cells; format: cell-based; settings: read-out: Cytotoxicity (IC50 in nM) HA22T
Protocol: as §1, §2, §3

[5] = tested on: human breast cancer (MCF); experiment: In vitro cytotoxicity against MCF cells; format: cell-based; settings: read-out: Cytotoxicity (IC50 in nM) MCF
Protocol: as §1, §2, §3

[6] = tested on: human colon cancer (DLD1); experiment: In vitro cytotoxicity against DLD1 cells; format: cell-based
Protocol: as §1, §2, §3

[7] = In vitro cytotoxicity against normal fibroblast cells WI38; format: cell-based; settings: human, concentration producing 50% reduction in cell growth
Protocol: as §1, §2, §3

[8] = HEPG2, liver cancer, concentration producing 50% reduction in cell growth, read-out: Cytotoxicity (IC50 in nM) HEPG2
[9] = gastric cancer, concentration producing 50% reduction in cell growth
[10] = HONE1, nasopharyngeal carcinoma, concentration producing 50% reduction in cell growth, read-out: Cytotoxicity (IC50 in nM) HONE1
[11] = liver cancer, concentration producing 50% reduction in cell growth
[12] = MCF, breast cancer, concentration producing 50% reduction in cell growth
[13] = DLD-1, DLDI, colon cancer, concentration producing 50% reduction in cell growth, read-out: Cytotoxicity (IC50 in nM) DLDI

## N#CN=C(NCCCCCCOc1ccc(Cl)cc1)Nc1ccncc1 [CHS 828, reference compound]
[1]; HepG2, read-out: Cytotoxicity (IC50 in nM) HEPG2
  IC50: 1240 nM
[2]
  IC50: 25 nM
[3]; HONE1, read-out: Cytotoxicity (IC50 in nM) HONE1
  IC50: 15 nM
[4]
  IC50: 2070 nM
[5]
  IC50: 18 nM
[6]; DLD-1, read-out: Cytotoxicity (IC50 in nM) DLDI
  IC50: 2320 nM

## O=C(C(Br)=NNc1ccccc1)c1cc2ccccc2oc1=O [Compound 2, 2-oxo-2-(2-oxo-2H-chromen-3-yl)-N'-phenylacetohydrazonoylbromide]
[1]; [8]
  IC50: 174 nM
[2]; [9]
  IC50: 48 nM
[3]; [10]
  IC50: 1480 nM
other
  melting point: 88 to 90 °C
[4]; [11]
  IC50: 1120 nM
[5]; [12]
  IC50: 288 nM
[6]; [13]
  IC50: 60 nM

## N#CC(C#N)=C(CO)c1cc2ccccc2oc1=O [Compound 3, 2-(2-Hydroxy-1-(2-oxo-2H-chromen-3-yl)ethylidene)malononitrile]
[7]
  IC50: 910 nM
[1]; [8]
  IC50: 1230 nM
[2]; [9]
  IC50: 1160 nM
[3]; [10]
  IC50: 699 nM
other
  melting point: 162 to 164 °C
[4]; [11]
  IC50: 1650 nM
[5]; [12]
  IC50: 821 nM
[6]; [13]
  IC50: 1280 nM

## N#Cc1c(N)sc(Br)c1-c1cc2ccccc2oc1=O [Compound 4a, 2-Amino-5-bromo-4-(2-oxo-2H-chromen-3-yl)thiophene-3-carbonitrile]
[7]
  IC50: 780 nM
[1]; [8]
  IC50: 221 nM
[2]; [9]
  IC50: 32 nM
[3]; [10]
  IC50: 228 nM
other
  melting point: 180 to 182 °C
[4]; [11]
  IC50: 27 nM
[5]; [12]
  IC50: 2060 nM
[6]; [13]
  IC50: 50 nM

## CCOC(=O)c1c(N)sc(Br)c1-c1cc2ccccc2oc1=O [Compound 4b, Ethyl 2-amino-5-bromo-4-(2-oxo-2H-chromen-3-yl)thiophene-3-carboxylate]
[1]; [8]
  IC50: 2020 nM
[2]; [9]
  IC50: 84 nM
[3]; [10]
  IC50: 1210 nM
other
  melting point: 177 to 179 °C
[4]; [11]
  IC50: 219 nM
[5]; [12]
  IC50: 1140 nM
[6]; [13]
  IC50: 167 nM

## N#CC1=C(N)OC(c2cc3ccccc3oc2=O)=C(Br)C1c1ccccc1 (centres unmarked) [Compound 6a, 2-Amino-5-bromo-6-(2-oxo-2H-chromen-3-yl)-4-phenyl-4H-pyran-3-carbonitrile]
[1]; [8]
  IC50: 59 nM
[2]; [9]
  IC50: 1090 nM
[3]; [10]
  IC50: 1180 nM
other
  melting point: 140 to 142 °C
[4]; [11]
  IC50: 1240 nM
[5]; [12]
  IC50: 2180 nM
[6]; [13]
  IC50: 303 nM

## N#CC1=C(N)OC(c2cc3ccccc3oc2=O)=C(Br)C1c1ccco1 (centres unmarked) [Compound 6d, 2-Amino-5-bromo-4-(furan-2-yl)-6-(2-oxo-2H-chromen-3-yl)-4H-pyran-3-carbonitrile]
[1]; [8]
  IC50: 360 nM
[2]; [9]
  IC50: 29 nM
[3]; [10]
  IC50: 279 nM
other
  melting point: 148 to 150 °C
[4]; [11]
  IC50: 2110 nM
[5]; [12]
  IC50: 931 nM
[6]; [13]
  IC50: 98 nM

## N#CC1=C(N)NC(c2cc3ccccc3oc2=O)=C(Br)C1c1ccc(Cl)cc1 (centres unmarked) [Compound 7c, 2-Amino-5-bromo-4-(4-chlorophenyl)-6-(2-oxo-2H-chromen-3-yl)-1,4-dihydropyridine-3-carbonitrile]
[1]; [8]
  IC50: 416 nM
[2]; [9]
  IC50: 98 nM
[3]; [10]
  IC50: 221 nM
other
  melting point: 206 to 208 °C
[4]; [11]
  IC50: 128 nM
[5]; [12]
  IC50: 43 nM
[6]; [13]
  IC50: 32 nM

## N#CC1=C(N)NC(c2cc3ccccc3oc2=O)=C(Br)C1c1ccco1 (centres unmarked) [Compound 7d, 2-Amino-5-bromo-4-(furan-2-yl)-6-(2-oxo-2H-chromen-3-yl)-1,4-dihydropyridine-3-carbonitrile]
[1]; [8]
  IC50: 2730 nM
[2]; [9]
  IC50: 682 nM
[3]; [10]
  IC50: 1190 nM
other
  melting point: 205 to 207 °C
[4]; [11]
  IC50: 52 nM
[5]; [12]
  IC50: 1130 nM
[6]; [13]
  IC50: 163 nM

## Nc1cc(-c2cc3ccccc3oc2=O)n[nH]1 [Compound 9a, 3-(5-Amino-1H-pyrazol-3-yl)-2H-chromen-2-one]
[1]; [8]
  IC50: 359 nM
[2]; [9]
  IC50: 3470 nM
[3]; [10]
  IC50: 442 nM
other
  melting point: 218 to 220 °C
[4]; [11]
  IC50: 2170 nM
[5]; [12]
  IC50: 1290 nM
[6]; [13]
  IC50: 48 nM

## Nc1cc(-c2cc3ccccc3oc2=O)nn1-c1ccccc1 [Compound 9b, 3-(5-Amino-1-phenyl-1H-pyrazol-3-yl)-2H-chromen-2-one]
[1]; [8]
  IC50: 415 nM
[2]; [9]
  IC50: 1120 nM
[3]; [10]
  IC50: 4270 nM
other
  melting point: 158 to 160 °C
[4]; [11]
  IC50: 1580 nM
[5]; [12]
  IC50: 1650 nM
[6]; [13]
  IC50: 2240 nM

## COc1ccc(C2C(C#N)=C(N)OC(c3cc4ccccc4oc3=O)=C2C#N)cc1 (centres unmarked) [Compound 10b, 2-Amino-4-(4-methoxyphenyl)-6-(2-oxo-2H-chromen-3-yl)-4H-pyran-3,5-dicarbonitrile]
[1]; [8]
  IC50: 1320 nM
[2]; [9]
  IC50: 1340 nM
[3]; [10]
  IC50: 2180 nM
other
  melting point: 113 to 115 °C
[4]; [11]
  IC50: 89 nM
[5]; [12]
  IC50: 2120 nM
[6]; [13]
  IC50: 2280 nM

## N#CC1=C(N)OC(c2cc3ccccc3oc2=O)=C(C#N)C1c1ccc(Cl)cc1 (centres unmarked) [Compound 10c, 2-Amino-4-(4-chlorophenyl)-6-(2-oxo-2H-chromen-3-yl)-4H-pyran-3,5-dicarbonitrile]
[1]; [8]
  IC50: 399 nM
[2]; [9]
  IC50: 312 nM
[3]; [10]
  IC50: 89 nM
other
  melting point: 178 to 180 °C
[4]; [11]
  IC50: 4170 nM
[5]; [12]
  IC50: 584 nM
[6]; [13]
  IC50: 193 nM

## N#CC1=C(N)OC(c2cc3ccccc3oc2=O)=C(C#N)C1c1ccco1 (centres unmarked) [Compound 10d, 2-Amino-4-(furan-2-yl)-6-(2-oxo-2H-chromen-3-yl)-4H-pyran-3,5-dicarbonitrile]
[1]; [8]
  IC50: 3320 nM
[2]; [9]
  IC50: 47 nM
[3]; [10]
  IC50: 220 nM
other
  melting point: 133 to 135 °C
[4]; [11]
  IC50: 102 nM
[5]; [12]
  IC50: 2250 nM
[6]; [13]
  IC50: 68 nM

## COc1ccc(C2C(C#N)=C(N)NC(c3cc4ccccc4oc3=O)=C2C#N)cc1 (centres unmarked) [Compound 11b, 2-Amino-4-(4-methoxyphenyl)-6-(2-oxo-2H-chromen-3-yl)-1,4-dihydropyridine-3,5-dicarbonitrile]
[1]; [8]
  IC50: 215 nM
[2]; [9]
  IC50: 124 nM
[3]; [10]
  IC50: 1670 nM
other
  melting point: 99 to 101 °C
[4]; [11]
  IC50: 3060 nM
[5]; [12]
  IC50: 39 nM
[6]; [13]
  IC50: 58 nM

## N#CC1=C(N)NC(c2cc3ccccc3oc2=O)=C(C#N)C1c1ccc(Cl)cc1 (centres unmarked) [Compound 11c, 2-Amino-4-(4-chlorophenyl)-6-(2-oxo-2H-chromen-3-yl)-1,4-dihydropyridine-3,5-dicarbonitrile]
[1]; [8]
  IC50: 424 nM
[2]; [9]
  IC50: 1280 nM
[3]; [10]
  IC50: 1770 nM
other
  melting point: 197 to 199 °C
[4]; [11]
  IC50: 2060 nM
[5]; [12]
  IC50: 839 nM
[6]; [13]
  IC50: 483 nM
